Values of other authors as cited in patent US10292953B2 (priority 2013, dated 2019).
Read-outs that look alike come from different tables or passages of the source.

How the values were obtained:
porcine cornea = conditions: solution, in vitro
ulceration of the cornea = conditions: 1% topical solution, rabbits with ulceration of the cornea
corneal pain [1] = conditions: dogs, aqueous solution of 1%, topical ocular
corneal pain [2] = conditions: cats, aqueous solution of 1%, topical ocular

For CC(C)Cc1ccc(C(C)C(=O)O)cc1.N=C(N)NCCC[C@H](N)C(=O)O (centres unmarked), the “effect on integrity of the cornea” value (porcine cornea) is given as “adversely affected the integrity of the cornea”.

In the case of Oc1ccc2c3c1O[C@H]1[C@@H](O)CC[C@@]4(O)[C@@H](C2)N(CC2CCC2)CC[C@]314 [nalbuphine], the analgesic efficacy (ulceration of the cornea) is listed as “Neither did the opioid semi-synthetic nalbuphine applied in the form of 1% topical solution demonstrate analgesic efficacy”.

For CC(C)Cc1ccc(C(C)C(=O)O)cc1.NCCCC[C@H](N)C(=O)O (centres unmarked), the “effect on integrity of the cornea” value (porcine cornea) is given as “adversely affected the integrity of the cornea”.

For CN1CC[C@]23c4c5ccc(O)c4O[C@H]2[C@@H](O)C=C[C@H]3[C@H]1C5 [morphine], the “analgesic effects in treatment of corneal pain” value (corneal pain [1]) is listed as “did not demonstrate analgesic effects” and the “analgesic effects in treatment of corneal pain” value (corneal pain [2]) is listed as “did not demonstrate analgesic effects”.
